Assay results taken from patent publication US11357229B2, “Composition, uses and preparation process thereof, as well as method to ensure high corn crop yield” (priority 2011, dated 2022).

What was measured:
Type in all cases: in vivo, Zea mays
corn [1] = assay: BF 428-5 applied to corn at stage V6, Nova Mutum; chlorantraniliprole and cyproconazole+azoxystrobin added in all treatments; details: V6; 30 DAA; all treatments (Table 11)
Experimental: Example 6—Effect of Growth Regulator BF 428-5 Applied to Corn at the Stage of Development V6
(§1) In the moment of the application, the insecticide chlorantraniliprole (25 g ha^−1 a.i.) and the fungicide cyproconazole+azoxystrobin (24+60 g ha^−1 a.i.) were added in all treatments, including the control.

corn [2] = assay: Ethephon applied to corn at stage V8, Nova Mutum; methomyl and pyraclostrobin+epoxyconazole added in all treatments; details: for Increased Yield: 100,000 plants/ha vs control at normal density
Experimental: Example 1—Effect of Growth Regulator Ethephon Applied to Corn at the Stage of Development V8
(§2) In the moment of the application, the insecticide methomyl (215 g ha^−1 a.i.) and the fungicide pyraclostrobin+epoxyconazole (99.75+37.5 g ha^−1 a.i.) were added in all treatments, including the control.

corn [3] = assay: Ethephon applied to corn at stage V6, Nova Mutum; chlorantraniliprole and cyproconazole+azoxystrobin added in all treatments; details: for Increased Yield: 100,000 plants/ha vs control at normal density
Experimental: Example 2—Effect of Growth Regulator Ethephon Applied to Corn at the Stage of Development V6
as §1

corn plants = assay: Growth regulator applied in the late vegetative stage of corn (V6-V9), inventors' finding; details: application in the late vegetative stage (V6-V9)
From the text: The solution to such problems related to corn crops would be to limit plant growth through the use of plant growth regulators, commonly used in other crops (cotton, wheat), but without any tradition in corn crop in order to provide the cultivation of high densities of corn plants per hectare with a view to achieving considerable increase in the crop's yield potential, as well as to improving pest and disease control in the crop.

corn [4] = assay: Ethephon+cyclanilide applied to corn at stage V8, Nova Mutum; methomyl and pyraclostrobin+epoxyconazole added in all treatments; details: estimation at 100,000 plants per hectare vs control at normal density of sowing (Table 6)
Experimental: Example 3—Effect of Growth Regulator Ethephon+Cyclanilide Applied to Corn at the Stage of Development V8
as §2

## O=P(O)(O)CCCl [Ethephon, 2-chloroethylphosphonic acid]
Corn [1]
  shoot length: less than or equal to 206.0 cm
Corn [2]; V8
  effects on the corn plant: reduction in shoot length, increased formation of adventitious roots, strengthening of the stem, strengthening of the root system, increased ventilation in the culture, proper development of male and female inflorescences
Corn [2]; V8 (Table 1)
  effect on length and diameter of ears of corn: reduces
  yield reduction: not significant
Corn [2]; V8, 30 DAA, all treatments with application of ethephon (Table 1)
  shoot length: less than or equal to 159.1 cm
Corn [2]; V8, 216 g ha^−1 a.i.
  Ear Diameter: 50.4 mm
  Ear Length: 25.8 cm
  Yield: 4335.6 kg/ha
  Population of corn plants 60,000 plants/ha, kg/corn plant: 0.072 kg/corn plant
  Population of corn plants 100,000 plants/ha, kg/corn plant: 0.072 kg/corn plant
  Yield estimates 100,000 plants/ha: 7226.0 kg/ha
  Increased Yield: 42.4%
Corn [2]; V8, 216 g ha^−1 a.i., 30 DAA
  Height (shoot length): 157.3 cm
Corn [2]; V8, 360 g ha^−1 a.i.
  Ear Diameter: 51.6 mm
  Ear Length: 25.6 cm
  Yield: 4253.3 kg/ha
  Population of corn plants 60,000 plants/ha, kg/corn plant: 0.071 kg/corn plant
  Population of corn plants 100,000 plants/ha, kg/corn plant: 0.071 kg/corn plant
  Yield estimates 100,000 plants/ha: 7088.8 kg/ha
  Increased Yield: 39.7%
Corn [2]; V8, 360 g ha^−1 a.i., 30 DAA
  Height (shoot length): 153.9 cm
Corn [2]; V8, 576 g ha^−1 a.i.
  Ear Diameter: 50.7 mm
  Ear Length: 25.4 cm
  Yield: 4680.0 kg/ha
  Population of corn plants 60,000 plants/ha, kg/corn plant: 0.078 kg/corn plant
  Population of corn plants 100,000 plants/ha, kg/corn plant: 0.078 kg/corn plant
  Yield estimates 100,000 plants/ha: 7800.0 kg/ha
  Increased Yield: 53.7%
Corn [2]; V8, 576 g ha^−1 a.i., 30 DAA
  Height (shoot length): 152.2 cm
Corn [2]; V8, estimation at 100,000 plants per hectare vs control at normal density of sowing (Table 2)
  yield increases: more than 39%
Corn [3]; V6
  effects on the corn plant: reduction in shoot length, increased formation of adventitious roots, strengthening of the stem, strengthening of the root system, increased ventilation in the culture, proper development of male and female inflorescences
Corn [3]; V6 (Table 3)
  effect on length and diameter of ears of corn: reduces
  yield reduction / increase: yield reduction was significant for some treatments, and the yield increase was also significant for some treatments
Corn [3]; V6, 30 DAA, all treatments with application of ethephon (Table 3)
  shoot length: less than or equal to 152.5 cm
Corn [3]; V6, 216 g ha^−1 a.i.
  Ear Diameter: 37.9 mm
  Ear Length: 21.4 cm
  Yield: 1906.7 kg/ha
  Population of corn plants 60,000 plants/ha, kg/corn plant: 0.032 kg/corn plant
  Population of corn plants 100,000 plants/ha, kg/corn plant: 0.032 kg/corn plant
  Yield estimates 100,000 plants/ha: 3177.8 kg/ha
  Increased Yield: 10.1%
Corn [3]; V6, 216 g ha^−1 a.i., 30 DAA
  Height (shoot length): 144.3 cm
Corn [3]; V6, 360 g ha^−1 a.i.
  Ear Diameter: 36.7 mm
  Ear Length: 21.1 cm
  Yield: 3553.3 kg/ha
  Population of corn plants 60,000 plants/ha, kg/corn plant: 0.059 kg/corn plant
  Population of corn plants 100,000 plants/ha, kg/corn plant: 0.059 kg/corn plant
  Yield estimates 100,000 plants/ha: 5922.2 kg/ha
  Increased Yield: 105.2%
Corn [3]; V6, 360 g ha^−1 a.i., 30 DAA
  Height (shoot length): 148.5 cm
Corn [3]; V6, 576 g ha^−1 a.i.
  Ear Diameter: 37.7 mm
  Ear Length: 23.3 cm
  Yield: 3540.0 kg/ha
  Population of corn plants 60,000 plants/ha, kg/corn plant: 0.059 kg/corn plant
  Population of corn plants 100,000 plants/ha, kg/corn plant: 0.059 kg/corn plant
  Yield estimates 100,000 plants/ha: 5900.0 kg/ha
  Increased Yield: 104.4%
Corn [3]; V6, 576 g ha^−1 a.i., 30 DAA
  Height (shoot length): 144.9 cm
Corn [3]; V6, estimation at 100,000 plants per hectare vs control at normal density of sowing (Table 4)
  yield increases: more than 10.1%
Corn plants
  root system: stronger root system
Corn [4]
  yield increases: more than 44.4%
